Test results as given in patent publication US12493040B2, “Cancer detection method using sense of smell of nematode” (HIROTSU BIO SCIENCE INC., priority 2013, dated 2025).

Test system: RNAi-treated eri-1 (mg366) nematodes
Assay: RNAi screening of olfactory receptor genes: chemotaxis assay of RNAi-treated nematodes to odorants
Type: in vivo, Caenorhabditis elegans
Details: repellent or high concentration of attractant
Description: The RNAi assay was carried out by performing an RNAi method involving the feeding (feeding RNAi method) of eri-1 (mg366) (19), using an Ahringer library (37).
Nine adult eri-1 mutants were placed on an NGM plate containing isopropyl 1-D-1-thiogalactopyranoside (0.19 g/L), ampicillin (60 mg/L), and Escherichia coli (E. coli), and were then cultured for 4 days. Subsequently, the adult worms were used in a chemotaxis assay. The chemotaxis assay was carried out as previously reported (6, 17). In the chemotaxis assay, the present inventor has used 30 to 50 worms in each experiment in which 1 μl of 10^−3- or 10^−4-diluted odorant (low concentration), or 1 and 5 μl of undiluted odorants (high concentration) were used.
The z score and a control value in each single test from 2SD were calculated in all days (Table 3) or every day. The z score was used as a threshold indicating a great difference (−1.96 and 1.96, P<0.05). […] Accordingly, the present inventor has used the z score±1 (−0.96 and 0.96, P<0.33) as a weaker threshold.

In the case of `CC(=O)C(C)=O` [High Da], the chemotaxis index (Control nematodes) is reported as −0.62 ± 0.012, the chemotaxis index (srh-4 RNAi-treated nematodes) is reported as −0.81 and the chemotaxis index (srh-7 RNAi-treated nematodes) is reported as −0.83. The chemotaxis index (srh-8 RNAi-treated nematodes) was −0.63, the chemotaxis index (srh-10 RNAi-treated nematodes) was 0.20 and the chemotaxis index (srh-11 RNAi-treated nematodes) was −0.65. It also gave a chemotaxis index (srh-15 RNAi-treated nematodes) of −0.54, a chemotaxis index (srh-16 RNAi-treated nematodes) of −0.65 and a chemotaxis index (srh-18 RNAi-treated nematodes) of −0.74. For the same molecule, the chemotaxis index (srh-19 RNAi-treated nematodes) was −0.43, the chemotaxis index (srh-22 RNAi-treated nematodes) was −0.74 and the chemotaxis index (srh-23 RNAi-treated nematodes) was −0.87. It also gave a chemotaxis index (srh-24 RNAi-treated nematodes) of −0.67, a chemotaxis index (srh-25 RNAi-treated nematodes) of −0.22 and a chemotaxis index (srh-27 RNAi-treated nematodes) of −0.80. For the same molecule, the chemotaxis index (srh-28 RNAi-treated nematodes) was −0.58, the chemotaxis index (srh-36 RNAi-treated nematodes) was −0.46 and the chemotaxis index (srh-37 RNAi-treated nematodes) was −0.34. For the same molecule, the chemotaxis index (srh-39 RNAi-treated nematodes) was −0.51, the chemotaxis index (srh-40 RNAi-treated nematodes) was −0.46 and the chemotaxis index (srh-41 RNAi-treated nematodes) was −0.21. It also gave a chemotaxis index (srh-44 RNAi-treated nematodes) of −0.25, a chemotaxis index (srh-45 RNAi-treated nematodes) of −0.47 and a chemotaxis index (srh-46 RNAi-treated nematodes) of −0.82. For the same molecule, the chemotaxis index (srh-48 RNAi-treated nematodes) was −0.49, the chemotaxis index (srh-49 RNAi-treated nematodes) was −0.62 and the chemotaxis index (srh-50 RNAi-treated nematodes) was −0.52. The chemotaxis index (srh-51 RNAi-treated nematodes) was −0.73, the chemotaxis index (srh-52 RNAi-treated nematodes) was −0.78 and the chemotaxis index (srh-55 RNAi-treated nematodes) was −0.78. The chemotaxis index (srh-59 RNAi-treated nematodes) was −0.24, the chemotaxis index (srh-60 RNAi-treated nematodes) was −0.64 and the chemotaxis index (srh-61 RNAi-treated nematodes) was −0.57. It also gave a chemotaxis index (srh-67 RNAi-treated nematodes) of −0.58, a chemotaxis index (srh-68 RNAi-treated nematodes) of −0.49 and a chemotaxis index (srh-69 RNAi-treated nematodes) of −0.76. For the same molecule, the chemotaxis index (srh-70 RNAi-treated nematodes) was −0.87, the chemotaxis index (srh-71 RNAi-treated nematodes) was −0.38 and the chemotaxis index (srh-72 RNAi-treated nematodes) was −0.73. The chemotaxis index (srh-74 RNAi-treated nematodes) was −0.54, the chemotaxis index (srh-75 RNAi-treated nematodes) was −0.42 and the chemotaxis index (srh-77 RNAi-treated nematodes) was −0.34. The chemotaxis index (srh-79 RNAi-treated nematodes) was 0.35, the chemotaxis index (srh-80 RNAi-treated nematodes) was −0.48 and the chemotaxis index (srh-82 RNAi-treated nematodes) was −0.36. For the same molecule, the chemotaxis index (srh-83 RNAi-treated nematodes) was −0.23, the chemotaxis index (srh-97 RNAi-treated nematodes) was −0.42 and the chemotaxis index (srh-99 RNAi-treated nematodes) was −0.24. It also gave a chemotaxis index (srh-100 RNAi-treated nematodes) of −0.75, a chemotaxis index (srh-104 RNAi-treated nematodes) of −0.39 and a chemotaxis index (srh-105 RNAi-treated nematodes) of −0.58. It also gave a chemotaxis index (srh-109 RNAi-treated nematodes) of −0.59, a chemotaxis index (srh-111 RNAi-treated nematodes) of −0.35 and a chemotaxis index (srh-113 RNAi-treated nematodes) of −0.62. It also gave a chemotaxis index (srh-115 RNAi-treated nematodes) of −0.57, a chemotaxis index (srh-116 RNAi-treated nematodes) of −0.36 and a chemotaxis index (srh-118 RNAi-treated nematodes) of −0.64. The chemotaxis index (srh-119 RNAi-treated nematodes) was −0.78, the chemotaxis index (srh-120 RNAi-treated nematodes) was −0.66 and the chemotaxis index (srh-122 RNAi-treated nematodes) was −0.53. The chemotaxis index (srh-123 RNAi-treated nematodes) was −0.55, the chemotaxis index (srh-125 RNAi-treated nematodes) was −0.59 and the chemotaxis index (srh-128 RNAi-treated nematodes) was −0.48. The chemotaxis index (srh-129 RNAi-treated nematodes) was −0.69, the chemotaxis index (srh-130 RNAi-treated nematodes) was −0.37 and the chemotaxis index (srh-131 RNAi-treated nematodes) was −0.34. The chemotaxis index (srh-132 RNAi-treated nematodes) was −0.83, the chemotaxis index (srh-139 RNAi-treated nematodes) was −0.42 and the chemotaxis index (srh-140 RNAi-treated nematodes) was −0.46. The chemotaxis index (srh-141 RNAi-treated nematodes) was −0.77, the chemotaxis index (srh-142 RNAi-treated nematodes) was −0.49 and the chemotaxis index (srh-145 RNAi-treated nematodes) was −0.85. It also gave a chemotaxis index (srh-148 RNAi-treated nematodes) of −0.69, a chemotaxis index (srh-154 RNAi-treated nematodes) of −0.65 and a chemotaxis index (srh-159 RNAi-treated nematodes) of −0.45. It also gave a chemotaxis index (srh-165 RNAi-treated nematodes) of −0.79, a chemotaxis index (srh-166 RNAi-treated nematodes) of −0.83 and a chemotaxis index (srh-167 RNAi-treated nematodes) of −0.89. The chemotaxis index (srh-169 RNAi-treated nematodes) was −0.92, the chemotaxis index (srh-174 RNAi-treated nematodes) was −0.69 and the chemotaxis index (srh-179 RNAi-treated nematodes) was −0.87. The chemotaxis index (srh-182 RNAi-treated nematodes) was −0.86, the chemotaxis index (srh-186 RNAi-treated nematodes) was −0.80 and the chemotaxis index (srh-190 RNAi-treated nematodes) was −0.91. It also gave a chemotaxis index (srh-193 RNAi-treated nematodes) of −0.53, a chemotaxis index (srh-195 RNAi-treated nematodes) of −0.80 and a chemotaxis index (srh-201 RNAi-treated nematodes) of −0.95. For the same molecule, the chemotaxis index (srh-203 RNAi-treated nematodes) was −0.94, the chemotaxis index (srh-204 RNAi-treated nematodes) was −0.89 and the chemotaxis index (srh-206 RNAi-treated nematodes) was −0.79. It also gave a chemotaxis index (srh-207 RNAi-treated nematodes) of −0.87, a chemotaxis index (srh-208 RNAi-treated nematodes) of −0.76 and a chemotaxis index (srh-209 RNAi-treated nematodes) of −0.70. The chemotaxis index (srh-210 RNAi-treated nematodes) was −0.56, the chemotaxis index (srh-214 RNAi-treated nematodes) was −0.60 and the chemotaxis index (srh-216 RNAi-treated nematodes) was −0.61. The chemotaxis index (srh-217 RNAi-treated nematodes) was −0.50, the chemotaxis index (srh-220 RNAi-treated nematodes) was −0.42 and the chemotaxis index (srh-222 RNAi-treated nematodes) was −0.66. It also gave a chemotaxis index (srh-223 RNAi-treated nematodes) of −0.50.
